Reference: ChEMBL document CHEMBL1629655, “Affinity of Tomopenem (CS-023) for penicillin-binding proteins in Staphylococcus aureus, Escherichia coli, and Pseudomonas aeruginosa” (Antimicrob Agents Chemother, 2009)
In brackets after ≈: the same amount, converted by molar mass. Activity calls are given as the source filed them. The rule behind the calls is not given here.

Assays:
[1] = system: Staphylococcus aureus; assay: Ratio of MIC for Staphylococcus aureus SIR2a selected at 2 times MIC of imipenem to MIC for Staphylococcus aureus ATCC 6538P; type: functional
[2] = Displacement of [14C]benzylpenicillin from PBP4 in Escherichia coli NIHJ
[3] = system: Escherichia coli; assay: Antibacterial activity against Escherichia coli EMR2a selected at 2 times MIC of meropenem by microdilution method; type: functional
[4] = system: Escherichia coli; assay: Antibacterial activity against Escherichia coli NIHJ assessed as appearance of spherical and bulge cells at 8 times MIC by Scanning electron microscopy; type: functional, organism-based
[5] = system: Escherichia coli; assay: Antibacterial activity against Escherichia coli EIR2b selected at 2 times MIC of imipenem by microdilution method; type: functional
[6] = system: Pseudomonas aeruginosa; assay: Antibacterial activity against Pseudomonas aeruginosa ATCC 15692 assessed as appearance of bulge cells at MIC by Scanning electron microscopy; type: functional, organism-based
[7] = system: Pseudomonas aeruginosa; assay: Antibacterial activity against Pseudomonas aeruginosa PRR4a selected at 4 times MIC of tomopenem by microdilution method; type: functional
[8] = Displacement of [14C]benzylpenicillin from PBP4 in Staphylococcus aureus ATCC 6538P
[9] = system: Pseudomonas aeruginosa; assay: Antibacterial activity against Pseudomonas aeruginosa ATCC 15692 assessed as filamentation of cells at 0.125 times MIC by scanning electron microscopy; type: functional, organism-based
[10] = Displacement of [14C]benzylpenicillin from PBP1A in Pseudomonas aeruginosa ATCC 15692
[11] = system: Escherichia coli; assay: Ratio of MIC for Escherichia coli ERR2b to MIC for Escherichia coli NIHJ; type: functional
[12] = system: Pseudomonas aeruginosa; assay: Antibacterial activity against Pseudomonas aeruginosa ATCC 15692 assessed as fold decrease in compound susceptibility after 10 passages relative to control; type: functional
[13] = Displacement of [14C]benzylpenicillin from PBP3 in Staphylococcus aureus ATCC 6538P
[14] = Displacement of [14C]benzylpenicillin from PBP2 in Escherichia coli NIHJ
[15] = Displacement of [14C]benzylpenicillin from PBP5 in Escherichia coli NIHJ
[16] = system: Staphylococcus aureus; assay: Ratio of MIC for Staphylococcus aureus SMR2a to MIC for Staphylococcus aureus ATCC 6538P; type: functional
[17] = system: Staphylococcus aureus; assay: Antibacterial activity against Staphylococcus aureus SIR2a selected at 2 times MIC of imipenem by microdilution method; type: functional
[18] = Displacement of [14C]benzylpenicillin from PBP3 in Escherichia coli NIHJ
[19] = system: Escherichia coli; assay: Ratio of MIC for Escherichia coli ERR8a to MIC for Escherichia coli NIHJ; type: functional
[20] = system: Escherichia coli; assay: Antibacterial activity against Escherichia coli NIHJ by microdilution method; type: functional, organism-based
[21] = Displacement of [14C]benzylpenicillin from PBP3 in Pseudomonas aeruginosa ATCC 15692
[22] = system: Escherichia coli; assay: Antibacterial activity against Escherichia coli NIHJ assessed as appearance of swollen cells at 1/8 times MIC by Scanning electron microscopy; type: functional, organism-based
[23] = Displacement of [14C]benzylpenicillin from PBP1 in Staphylococcus aureus ATCC 6538P
[24] = Displacement of [14C]benzylpenicillin from PBP1B in Escherichia coli NIHJ
[25] = system: Escherichia coli; assay: Antibacterial activity against Escherichia coli ERR2a selected at 2 times MIC of tomopenem by microdilution method; type: functional
[26] = system: Staphylococcus aureus; assay: Antibacterial activity against Staphylococcus aureus SRR2a selected at 2 times MIC of tomopenem by microdilution method; type: functional
[27] = system: Staphylococcus aureus; assay: Antibacterial activity against Staphylococcus aureus SMR4a […] MIC of meropenem by microdilution method; type: functional
[28] = Displacement of [14C]benzylpenicillin from PBP1B in Pseudomonas aeruginosa ATCC 15692
[29] = system: Escherichia coli; assay: Ratio of MIC for Escherichia coli EIR8a to MIC for Escherichia coli NIHJ; type: functional
[30] = system: Staphylococcus aureus; assay: Ratio of MIC for Staphylococcus aureus SMR4a to MIC for Staphylococcus aureus ATCC 6538P; type: functional
[31] = system: Pseudomonas aeruginosa; assay: Ratio of MIC for Pseudomonas aeruginosa PMR2a to MIC for Pseudomonas aeruginosa ATCC 15692; type: functional
[32] = system: Pseudomonas aeruginosa; assay: Antibacterial activity against Pseudomonas aeruginosa PMR2a selected at 2 times MIC of meropenem by microdilution method; type: functional
[33] = system: Pseudomonas aeruginosa; assay: Ratio of MIC for Pseudomonas aeruginosa PIR2a to MIC for Pseudomonas aeruginosa ATCC 15692; type: functional
[34] = system: Pseudomonas aeruginosa; assay: Antibacterial activity against Pseudomonas aeruginosa ATCC 15692 by microdilution method; type: functional, organism-based
[35] = system: Escherichia coli; assay: Ratio of MIC for Escherichia coli ERR2a selected to MIC for Escherichia coli NIHJ; type: functional
[36] = system: Escherichia coli; assay: Antibacterial activity against Escherichia coli EIR4b selected at 4 times MIC of imipenem by microdilution method; type: functional
[37] = Displacement of [14C]benzylpenicillin from PBP 6 in Pseudomonas aeruginosa ATCC 15692
[38] = system: Staphylococcus aureus; assay: Antibacterial activity against Staphylococcus aureus ATCC 6538P assessed as fold decrease in compound susceptibility after 10 passages relative to control; type: functional
[39] = system: Escherichia coli; assay: Antibacterial activity against Escherichia coli EIR2a selected at 2 times MIC of imipenem by microdilution method; type: functional
[40] = system: Escherichia coli; assay: Ratio of MIC for Escherichia coli EIR4a to MIC for Escherichia coli NIHJ; type: functional
[41] = system: Staphylococcus aureus; assay: Ratio of MIC for Staphylococcus aureus SRR2a to MIC for Staphylococcus aureus ATCC 6538P; type: functional
[42] = system: Escherichia coli; assay: Antibacterial activity against Escherichia coli EIR4a selected at 4 times MIC of imipenem by microdilution method; type: functional
[43] = system: Escherichia coli; assay: Ratio of MIC for Escherichia coli EIR4b to MIC for Escherichia coli NIHJ; type: functional
[44] = Displacement of [14C]benzylpenicillin from PBP 5 in Pseudomonas aeruginosa ATCC 15692
[45] = system: Escherichia coli; assay: Antibacterial activity against Escherichia coli EIR8a selected at 8 times MIC of imipenem by microdilution method; type: functional
[46] = system: Escherichia coli; assay: Antibacterial activity against Escherichia coli ERR4a selected at 4 times MIC of tomopenem by microdilution method; type: functional
[47] = system: Escherichia coli; assay: Ratio of MIC for Escherichia coli EIR2a to MIC for Escherichia coli NIHJ; type: functional
[48] = system: Staphylococcus aureus; assay: Antibacterial activity against methicillin-sensitive Staphylococcus aureus by microdilution method; type: functional
[49] = system: Pseudomonas aeruginosa; assay: Ratio of MIC for Pseudomonas aeruginosa PRR4a to MIC for Pseudomonas aeruginosa ATCC 15692; type: functional
[50] = Displacement of [14C]benzylpenicillin from PBP2 Staphylococcus aureus ATCC 6538P
[51] = Displacement of [14C]benzylpenicillin from PBP2 in Pseudomonas aeruginosa ATCC 15692
[52] = Displacement of [14C]benzylpenicillin from PBP6 Escherichia coli NIHJ
[53] = system: Escherichia coli; assay: Antibacterial activity against Escherichia coli ERR2b selected at 2 times MIC of tomopenem by microdilution method; type: functional
[54] = system: Staphylococcus aureus; assay: Antibacterial activity against Staphylococcus aureus SMR2a selected at 2 times MIC of meropenem by microdilution method; type: functional
[55] = Displacement of [14C]benzylpenicillin from PBP1A in Escherichia coli NIHJ
[56] = system: Pseudomonas aeruginosa; assay: Antibacterial activity against Pseudomonas aeruginosa PIR2a selected at 2 times MIC of imipenem by microdilution method; type: functional
[57] = system: Staphylococcus aureus; assay: Antibacterial activity against methicillin-resistant Staphylococcus aureus by microdilution method; type: functional
[58] = system: Escherichia coli; assay: Ratio of MIC for Escherichia coli ERR4a to MIC for Escherichia coli NIHJ; type: functional
[59] = system: Staphylococcus aureus; assay: Antibacterial activity against Staphylococcus aureus ATCC 6538P by microdilution method; type: functional, organism-based
[60] = system: Escherichia coli; assay: Antibacterial activity against Escherichia coli ERR8a selected at 8 times MIC of tomopenem by microdilution method; type: functional
[61] = system: Escherichia coli; assay: Ratio of MIC for Escherichia coli EMR2a to MIC for Escherichia coli NIHJ; type: functional
[62] = Displacement of [14C]benzylpenicillin from PBP4 in Pseudomonas aeruginosa ATCC 15692
[63] = system: Escherichia coli; assay: Ratio of MIC for Escherichia coli EIR2b to MIC for Escherichia coli NIHJ; type: functional

C[C@@H](O)[C@H]1C(=O)N2C(C(=O)O)=C(S[C@H]3C[C@@H](C(=O)N4CC[C@H](NC(=O)CNC(=N)N)C4)N(C)C3)[C@H](C)[C@H]12 [TOMOPENEM]
Ratio MIC [1]: 4
IC50 [2]: > 32 µg/mL
MIC [3]: 0.06 µg/mL
Activity [4]: Active
MIC [5]: 0.06 µg/mL
Activity [6]: Active
MIC [7]: 8 µg/mL
IC50 [8]: 0.094 µg/mL (≈ 0.175 µM)
Activity [9]: Active
IC50 [10]: 0.061 µg/mL (≈ 0.113 µM)
Ratio MIC [11]: 4
fold change (FC) [12]: 8
IC50 [13]: > 32 µg/mL
IC50 [14]: 0.017 µg/mL (≈ 0.0316 µM)
IC50 [15]: 5.7 µg/mL (≈ 10.6 µM)
Ratio MIC [16]: 4
MIC [17]: 0.25 µg/mL
IC50 [18]: 0.71 µg/mL (≈ 1.32 µM)
Ratio MIC [19]: 4
MBC [20]: 0.03 µg/mL (≈ 0.0558 µM)
MIC [20]: 0.03 µg/mL (≈ 0.0558 µM)
IC50 [21]: 0.011 µg/mL (≈ 0.0205 µM)
Activity [22]: Active
IC50 [23]: 0.16 µg/mL (≈ 0.298 µM)
IC50 [24]: 1.3 µg/mL (≈ 2.42 µM)
MIC [25]: 0.12 µg/mL
MIC [26]: 0.25 µg/mL
MIC [27]: 0.5 µg/mL
IC50 [28]: 0.053 µg/mL (≈ 0.0986 µM)
Ratio MIC [29]: 2
ratio [30]: 8
Ratio MIC [31]: 8
MIC [32]: 2 µg/mL
Ratio MIC [33]: 8
MBC [34]: 0.5 µg/mL (≈ 0.93 µM)
MIC [34]: 0.5 µg/mL (≈ 0.93 µM)
Ratio MIC [35]: 4
MIC [36]: 0.06 µg/mL
IC50 [37]: 5 µg/mL (≈ 9.3 µM)
fold change (FC) [38]: 2
MIC [39]: 0.06 µg/mL
Ratio MIC [40]: 2
Ratio MIC [41]: 4
MIC [42]: 0.06 µg/mL
Ratio MIC [43]: 2
IC50 [44]: 5 µg/mL (≈ 9.3 µM)
MIC [45]: 0.06 µg/mL
MIC [46]: 0.12 µg/mL
Ratio MIC [47]: 2
MIC50 [48]: 0.12 µg/mL (≈ 0.223 µM)
MIC90 [48]: 0.12 µg/mL (≈ 0.223 µM)
Ratio MIC [49]: 32
IC50 [50]: 0.21 µg/mL (≈ 0.391 µM)
IC50 [51]: 0.011 µg/mL (≈ 0.0205 µM)
IC50 [52]: 31 µg/mL (≈ 57.7 µM)
MIC [53]: 0.12 µg/mL
MIC [54]: 0.25 µg/mL
IC50 [55]: 1.2 µg/mL (≈ 2.23 µM)
MIC [56]: 2 µg/mL
MIC50 [57]: 4 µg/mL (≈ 7.44 µM)
MIC90 [57]: 8 µg/mL (≈ 14.9 µM)
Ratio MIC [58]: 4
IC50 [59]: 0.06 µg/mL (≈ 0.112 µM)
MBC [59]: 0.06 µg/mL (≈ 0.112 µM)
MIC [59]: 0.06 µg/mL (≈ 0.112 µM)
MIC [60]: 0.12 µg/mL
Ratio MIC [61]: 2
IC50 [62]: 0.0035 µg/mL (≈ 0.00651 µM)
Ratio MIC [63]: 2
